Test system: B16–F10 cells
Assay: RNaseq gene expression profiling;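 on logFC Ak4: Hybrid compounds tested at 10 µM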;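 on logFC Cck: Hybrid compounds tested at 10 µM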;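 on logFC Cited1: Hybrid compounds tested at 10 µM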;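 on logFC Gpd1: Hybrid compounds tested at 10 µM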;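 on logFC Mgll: Hybrid compounds tested at 10 µM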;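 on logFC Nr4a3: Hybrid compounds tested at 10 µM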;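 on logFC Rnf145: Hybrid compounds tested at 10 µM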;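 on logFC Rpia: Hybrid compounds tested at 10 µM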;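 on logFC Sema7a: Hybrid compounds tested at 10 µM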;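 on logFC Snrpd1: Hybrid compounds tested at 10 µM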;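 on logFC Spc24: Hybrid compounds tested at 10 µM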;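 on logFC Tk1: Hybrid compounds tested at 10 µM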;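 on logFC Tonsl: Hybrid compounds tested at 10 µM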;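 on logFC Tpi1: Hybrid compounds tested at 10 µM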;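 on logFC Ugdh: Hybrid compounds tested at 10 µM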
Assay type: cell-based, mouse
Experimental: AC-340 superinduced CYP24A1 expression in all cell lines tested, and ZG-126 appeared to be a hyperagonist in SK-MEL-28 cells. […] AC-340 treatment produced 3 times more differentially expressed genes (DEGs) than AM-193, with ZG-126 producing an intermediate number (Figure A). […] The varying effects of each treatment on the numbers of regulated genes and the fold changes observed are reflected in plots of log-fold changes and volcano plots (Figure S3B).
A quality control was performed before sequencing in paired-end at 50 M reads by Illumina NovaSeq 6000 S4 PE100. After sequencing, the FASTQ files were sent to us and all downstream analysis were performed on Galaxy (Galaxy (usegalaxy.org)). First, trimmomatic tool was used to remove the adapters from the reads. Then, using the alignment tool, HISAT2, the reads were mapped to the mouse genome. In the next step, the counted reads were annotated and finally the list of differentially expressed genes (DEGs) for each treatment was obtained using the preinstalled R package called Limma.

## CCC(CC)(c1ccc(OCCCCCC(=O)NO)cc1)c1ccc(OCC(O)C(C)(C)C)c(C)n1 (stereo not shown) [AM-193]
RNAseq, gene Rnf145, AM193-significant genes
  logFC Rnf145: -0.7842
RNAseq, gene Rpia, AM193-significant genes
  logFC Rpia: -0.7096
RNAseq, gene Samd1, AM193-significant genes
  logFC Samd1: -0.798
RNAseq, gene Selenbp1, AM193-significant genes
  logFC Selenbp1: -1.012
RNAseq, gene Sema7a, AM193-significant genes
  logFC Sema7a: -0.8174
RNAseq, gene Sfxn2, AM193-significant genes
  logFC Sfxn2: -0.9624
RNAseq, gene Sigmar1, AM193-significant genes
  logFC Sigmar1: -0.7437
RNAseq, gene Sik1, AM193-significant genes
  logFC Sik1: -0.7218
RNAseq, gene Ska3, AM193-significant genes
  logFC Ska3: -0.7116
RNAseq, gene Slc2a1, AM193-significant genes
  logFC Slc2a1: -1.04
RNAseq, gene Slc37a4, AM193-significant genes
  logFC Slc37a4: -0.9222
RNAseq, gene Slc39a10, AM193-significant genes
  logFC Slc39a10: -0.7848
RNAseq, gene Snrpa1, AM193-significant genes
  logFC Snrpa1: -1.002
RNAseq, gene Snrpd1, AM193-significant genes
  logFC Snrpd1: -0.7702
RNAseq, gene Spc24, AM193-significant genes
  logFC Spc24: -0.7364
RNAseq, gene Srm, AM193-significant genes
  logFC Srm: -1.055
RNAseq, gene Tarbp1, AM193-significant genes
  logFC Tarbp1: -0.7191
RNAseq, gene Tbl2, AM193-significant genes
  logFC Tbl2: -0.8635
RNAseq, gene Tet1, AM193-significant genes
  logFC Tet1: -0.8944
RNAseq, gene Tfap4, AM193-significant genes
  logFC Tfap4: -1.016
RNAseq, gene Tinagl1, AM193-significant genes
  logFC Tinagl1: -0.9151
RNAseq, gene Tk1, AM193-significant genes
  logFC Tk1: -0.987
RNAseq, gene Tonsl, AM193-significant genes
  logFC Tonsl: -0.711
RNAseq, gene Tpi1, AM193-significant genes
  logFC Tpi1: -0.895
RNAseq, gene Trip13, AM193-significant genes
  logFC Trip13: -0.8647
RNAseq, gene Trmt61a, AM193-significant genes
  logFC Trmt61a: -0.7832
RNAseq, gene Trpm1, AM193-significant genes
  logFC Trpm1: -0.743
RNAseq, gene Ttk, AM193-significant genes
  logFC Ttk: -0.8273
RNAseq, gene Uba7, AM193-significant genes
  logFC Uba7: -0.9636
RNAseq, gene Ugdh, AM193-significant genes
  logFC Ugdh: -0.8794
RNAseq, gene Ugp2, AM193-significant genes
  logFC Ugp2: -0.7144
RNAseq, gene Uhrf1, AM193-significant genes
  logFC Uhrf1: -0.8121
RNAseq, gene Xrcc3, AM193-significant genes
  logFC Xrcc3: -0.7656
RNaseq, B16–F10 cells, gene Abca12 (ATP-binding cassette, sub-family A (ABC1), member 12), sheet AM193-significant genes
  logFC Abca12: -1.21
RNaseq, B16–F10 cells, gene Ak4 (adenylate kinase 4), sheet AM193-significant genes
  logFC Ak4: -1.909
RNaseq, B16–F10 cells, gene Bnip3 (BCL2/adenovirus E1B interacting protein 3), sheet AM193-significant genes
  logFC Bnip3: -1.2222
RNaseq, B16–F10 cells, gene Cck (cholecystokinin), sheet AM193-significant genes
  logFC Cck: -1.792
RNaseq, B16–F10 cells, gene Cited1 (Cbp/p300-interacting transactivator with Glu/Asp-rich carboxy-terminal domain 1), sheet AM193-significant genes
  logFC Cited1: -1.397
RNaseq, B16–F10 cells, gene Dna2 (DNA replication helicase/nuclease 2), sheet AM193-significant genes
  logFC Dna2: -1.157
RNaseq, B16–F10 cells, gene Gpd1 (glycerol-3-phosphate dehydrogenase 1 (soluble)), sheet AM193-significant genes
  logFC Gpd1: -1.351
RNaseq, B16–F10 cells, gene H2bc12 (H2B clustered histone 12), sheet AM193-significant genes
  logFC H2bc12: -1.307
RNaseq, B16–F10 cells, gene H3c8 (H3 clustered histone 8), sheet AM193-significant genes
  logFC H3c8: -1.15
RNaseq, B16–F10 cells, gene Hk2 (hexokinase 2), sheet AM193-significant genes
  logFC Hk2: -1.284
RNaseq, B16–F10 cells, gene Kit (KIT proto-oncogene receptor tyrosine kinase), sheet AM193-significant genes
  logFC Kit: -2.0666
RNaseq, B16–F10 cells, gene Lpar5 (lysophosphatidic acid receptor 5), sheet AM193-significant genes
  logFC Lpar5: -1.721
RNaseq, B16–F10 cells, gene Megf6 (multiple EGF-like-domains 6), sheet AM193-significant genes
  logFC Megf6: -1.186
RNaseq, B16–F10 cells, gene Mgll (monoglyceride lipase), sheet AM193-significant genes
  logFC Mgll: -1.2265
RNaseq, B16–F10 cells, gene Mknk2 (MAP kinase-interacting serine/threonine kinase 2), sheet AM193-significant genes
  logFC Mknk2: -1.156
RNaseq, B16–F10 cells, gene Nr4a3 (nuclear receptor subfamily 4, group A, member 3), sheet AM193-significant genes
  logFC Nr4a3: -2.364
RNaseq, B16–F10 cells, gene Oas2 (2'-5' oligoadenylate synthetase 2), sheet AM193-significant genes
  logFC Oas2: -1.532
RNaseq, B16–F10 cells, gene Pafah1b3 (platelet-activating factor acetylhydrolase, isoform 1b, subunit 3), sheet AM193-significant genes
  logFC Pafah1b3: -1.354
RNaseq, B16–F10 cells, gene Pdk1 (pyruvate dehydrogenase kinase, isoenzyme 1), sheet AM193-significant genes
  logFC Pdk1: -1.253
RNaseq, B16–F10 cells, gene Sapcd2 (suppressor APC domain containing 2), sheet AM193-significant genes
  logFC Sapcd2: -1.167
RNaseq, B16–F10 cells, gene Slc16a3 (solute carrier family 16 (monocarboxylic acid transporters), member 3), sheet AM193-significant genes
  logFC Slc16a3: -1.321
Gene 1700019D03Rik
  logFC: 1.314
Gene 4930455G09Rik
  logFC: 1.641
Gene Abca8b
  logFC: 1.273
Gene Abcd2
  logFC: 4.745
Gene Adamts7
  logFC: 1.528
Gene Adamtsl5
  logFC: 1.436
Gene Adssl1
  logFC: 1.51
Gene Afap1l2
  logFC: 1.64
Gene Akna
  logFC: 1.375
Gene Aldh1l2
  logFC: 1.268
Gene Ankrd23
  logFC: 1.409
Gene Asns
  logFC: 1.391
Gene Atp1b2
  logFC: 1.2305
Gene Atp2b4
  logFC: 1.278
Gene Atp8b3
  logFC: 1.445
Gene Bmf
  logFC: 1.318
Gene C1s1
  logFC: 1.363
Gene Cacng7
  logFC: 1.328
Gene Car11
  logFC: 1.215
Gene Cebpb
  logFC: 1.421
Gene Chn1
  logFC: 1.21
Gene Cnn2
  logFC: 1.571
Gene Col20a1
  logFC: 1.535
Gene Csdc2
  logFC: 1.317
Gene Cth
  logFC: 1.456
Gene Ctsf
  logFC: 1.525
Gene Cyb5r2
  logFC: 1.681
Gene Dagla
  logFC: 1.633
Gene Dbp
  logFC: 1.36
Gene Ddr2
  logFC: 1.2413
Gene Dgat1
  logFC: 1.203
Gene Dgka
  logFC: 1.571
Gene Dglucy
  logFC: 1.251
Gene Eef2k
  logFC: 1.203
Gene Efhd1
  logFC: 5.014
Gene Ehd3
  logFC: 1.292
Gene Fam83f
  logFC: 1.352
Gene Fam178b
  logFC: 1.456
Gene Fbxo2
  logFC: 1.302
Gene Fbxo41
  logFC: 1.469
Gene Fry
  logFC: 1.598
Gene Fstl1
  logFC: 1.467
Gene Gjc3
  logFC: 1.602
Gene Gli1
  logFC: 1.6149
Gene Glipr2
  logFC: 1.645
Gene Gm19705
  logFC: 1.68
Gene Gpr158
  logFC: 1.296
Gene Gpr162
  logFC: 1.524
Gene Gstm7
  logFC: 1.44
Gene Heg1
  logFC: 1.713
Gene Hid1
  logFC: 1.246
Gene Hoga1
  logFC: 1.608
Gene Hrc
  logFC: 1.3608
Gene Id3
  logFC: 1.638
Gene Inpp5e
  logFC: 1.325
Gene Itga8
  logFC: 1.267
Gene Jam2
  logFC: 1.325
Gene Kif9
  logFC: 1.315
Gene Lrrc75b
  logFC: 1.346
Gene Lrtm2
  logFC: 4.986
Gene Ltbp4
  logFC: 1.39
Gene Mettl27
  logFC: 1.2162
Gene Mmp11
  logFC: 1.398
Gene Mmp28
  logFC: 4.741
Gene Mxd4
  logFC: 1.4725
Gene Nccrp1
  logFC: 5.249
Gene Neurl3
  logFC: 1.34
Gene Notch1
  logFC: 1.541
Gene Notch3
  logFC: 1.442
Gene Nova2
  logFC: 1.445
Gene Nupr1
  logFC: 1.537
Gene Nwd1
  logFC: 1.316
Gene Pcdh1
  logFC: 1.75
Gene Pck2
  logFC: 1.456
Gene Pdlim2
  logFC: 1.539
Gene Phlda3
  logFC: 1.237
Gene Phyhd1
  logFC: 1.588
Gene Pierce2
  logFC: 1.323
Gene Plk2
  logFC: 1.532
Gene Prelp
  logFC: 5.529
Gene Prox1
  logFC: 1.361
Gene Ptges
  logFC: 4.4154
Gene Reck
  logFC: 1.669
Gene Rom1
  logFC: 1.351
Gene Scamp1
  logFC: 1.346
Gene Scube3
  logFC: 1.291
Gene Serpinb9b
  logFC: 1.695
Gene Shank1
  logFC: 1.222
Gene Slc17a7
  logFC: 1.733
Gene Slc25a35
  logFC: 1.406
Gene Slc25a42
  logFC: 1.347
Gene Slc43a2
  logFC: 1.207
Gene Sparc
  logFC: 1.263
Gene Spn
  logFC: 1.262
Gene Sync
  logFC: 1.481
Gene Syt7
  logFC: 1.364
Gene Trnp1
  logFC: 1.3245
Gene Vdr
  logFC: 5.618
Gene Wnt10a
  logFC: 4.9613
Gene Zfr2
  logFC: 1.286
